Reference: patent publication US8530493B2, “Indolopyridines as Eg5 kinesin modulators” (4SC AG, priority 2006, dated 2013)

Legend:
[1] = tested on: RKO p27 or p21 induced (arrested) colon adenocarcinoma cells; assay: Alamar Blue cell viability assay, RKO p27 or p21 induced (arrested); format: cell-based; settings: Homo sapiens, RKOp27, Table B2, cells arrested by Ponasterone A, 72 hours, read-out: −log EC50 RKO p27 or p21 induced (arrested) (converted)
Procedure, shortened: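 RKOp21 or RKOp27 subclones in DMEM/10% FCS with 10 μM Ponasterone A to induce p21/p27 arrest, seeded 24 h before compound; triplicate 72 h exposure at 37 °C. Alamar Blue fluorescence (544/590 nm) as % of untreated (1% DMSO) cells; EC50 from dose-response curves, reported as −log EC50 (mol/l).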

[2] = tested on: RKO p27 or p21 uninduced (proliferating) colon adenocarcinoma cells; assay: Alamar Blue cell viability assay, RKO p27 or p21 uninduced (proliferating); format: cell-based; settings: Homo sapiens, RKOp27, 72 h, Table B2, anti-proliferative/cytotoxic activity, read-out: −log EC50 RKO p27 or p21 uninduced (proliferating) (converted)
Procedure, shortened: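 RKO p21 or p27 subclones grown without Ponasterone A, i.e. proliferating, exposed 24 h after seeding to semi-log compound dilutions in DMEM/10% FCS (1% DMSO controls) for 72 h at 37° C. Alamar Blue fluorescence (544/590 nm) read relative to untreated cells; EC50 from dose-response curves, given as −log EC50 (mol/l).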

SMILES | EC50 [1] [nM] | EC50 [2] [nM]
C[C@@]12Cc3c([nH]c4ccc(Cl)cc34)[C@@H](c3cccc(O)c3)N1C(=O)N(CCNCC(F)F)C2=O (racemic) [Example 123, (3aSR,10RS)-6-Chloro-2-[2-(2,2-difluoro-ethylamino)-ethyl]-10-(3-hydroxy-phenyl)-3a-methyl-3a,4,9,10-tetrahydro-2,9,10a-triaza-cyclopenta[b]fluorene-1,3-dione] | ≥ 316 | 39.8 to 251
CCN(CCO)CCN1C(=O)N2[C@H](c3cccc(O)c3)c3[nH]c4ccc(Cl)cc4c3C[C@@]2(C)C1=O (racemic) [Example 124, (3aSR,10RS)-6-Chloro-2-{2-[ethyl-(2-hydroxy-ethyl)-amino]-ethyl}-10-(3-hydroxy-phenyl)-3a-methyl-3a,4,9,10-tetrahydro-2,9,10a-triaza-cyclopenta[b]fluorene-1,3-dione] | ≥ 316 | ≤ 39.8
COCCNCCN1C(=O)N2[C@H](c3cccc(O)c3)c3[nH]c4ccc(OC)cc4c3C[C@@]2(C)C1=O (racemic) [Example 83, (3aSR,10RS)-10-(3-Hydroxy-phenyl)-6-methoxy-2-[2-(2-methoxy-ethylamino)-ethyl]-3a-methyl-3a,4,9,10-tetrahydro-2,9,10a-triaza-cyclopenta[b]fluorene-1,3-dione] | ≥ 3160 | ≤ 39.8
COc1ccc2[nH]c3c(c2c1)C[C@@]1(C)C(=O)N(CCN2CC=CC2)C(=O)N1[C@@H]3c1cccc(O)c1 (racemic) [Example 119, (3aSR,10RS)-2-[2-(2,5-Dihydro-pyrrol-1-yl)-ethyl]-10-(3-hydroxy-phenyl)-6-methoxy-3a-methyl-3a,4,9,10-tetrahydro-2,9,10a-triaza-cyclopenta[b]fluorene-1,3-dione] | ≥ 316 | ≤ 39.8
COc1ccc2[nH]c3c(c2c1)C[C@@]1(C)C(=O)N(CCCN(C)CCO)C(=O)N1[C@@H]3c1cccc(O)c1 (racemic) [Example 143, (3aSR,10RS)-2-{3[(2-Hydroxy-ethyl)-methyl-amino]-propyl}-10-(3-hydroxy-phenyl)-6-methoxy-3a-methyl-3a,4,9,10-tetrahydro-2,9,10a-triaza-cyclopenta[b]fluorene-1,3-dione] | ≥ 316 | ≤ 39.8
COc1ccc2[nH]c3c(c2c1)C[C@@]1(C)C(=O)N(CCCCl)C(=O)N1[C@@H]3c1cccc(O)c1 (racemic) [Example 55, (3aSR,10RS)-2-(3-Chloro-propyl)-10-(3-hydroxy-phenyl)-6-methoxy-3a-methyl-3a,4,9,10-tetrahydro-2,9,10a-triaza-cyclopenta[b]fluorene-1,3-dione] | ≥ 316 | 39.8 to 251
COCCNCCN1C(=O)N2[C@H](c3cccc(O)c3)c3[nH]c4ccc(Cl)cc4c3C[C@@]2(C)C1=O (racemic) [Example 128, (3aSR,10RS)-6-Chloro-10-(3-hydroxy-phenyl)-2-[2-(2-methoxy-ethylamino)-ethyl]-3a-methyl-3a,4,9,10-tetrahydro-2,9,10a-triaza-cyclopenta[b]fluorene-1,3-dione] | ≥ 316 | ≤ 39.8
CCN(CCO)CCN1C(=O)N2[C@H](c3cccc(O)c3)c3[nH]c4ccc(OC)cc4c3C[C@@]2(C)C1=O (racemic) [Example 78, (3aSR,10RS)-2-[2-[Ethyl-(2-hydroxy-ethyl)-amino]-ethyl}-10-(3-hydroxy-phenyl)-6-methoxy-3a-methyl-3a,4,9,10-tetrahydro-2,9,10a-triaza-cyclopenta[b]fluorene-1,3-dione] | ≥ 3160 | ≤ 39.8
COc1ccc2[nH]c3c(c2c1)C[C@@]1(C)C(=O)N(CCCNCC(C)C)C(=O)N1[C@@H]3c1cccc(O)c1 (racemic) [Example 92, (3aSR,10RS)-10-(3-Hydroxy-phenyl)-2-(3-isobutylamino-propyl)-6-methoxy-3a-methyl-3a,4,9,10-tetrahydro-2,9,10a-triaza-cyclopenta[b]fluorene-1,3-dione] | ≥ 3160 | ≤ 39.8
C[C@@]12Cc3c([nH]c4ccc(Cl)cc34)[C@@H](c3cccc(O)c3)N1C(=O)N(CCN1CC=CCC1)C2=O (racemic) [Example 100, (3aSR,10RS)-6-Chloro-2-[2-(3,6-dihydro-2H-pyridin-1-yl)-ethyl]-10-(3-hydroxy-phenyl)-3a-methyl-3a,4,9,10-tetrahydro-2,9,10a-triaza-cyclopenta[b]fluorene-1,3-dione] | ≥ 3160 | ≤ 39.8
C=CCN(C)CCN1C(=O)N2[C@H](c3cccc(O)c3)c3[nH]c4ccc(Cl)cc4c3C[C@@]2(C)C1=O (racemic) [Example 117, (3aSR,10RS)-2-[2-(Allyl-methyl-amino)-ethyl]-6-chloro-10-(3-hydroxy-phenyl)-3a-methyl-3a,4,9,10-tetrahydro-2,9,10a-triaza-cyclopenta[b]fluorene-1,3-dione] | ≥ 316 | ≤ 39.8
COc1ccc2[nH]c3c(c2c1)C[C@@]1(C)C(=O)N(CCNC(C)(C)C)C(=O)N1[C@@H]3c1cccc(O)c1 (racemic) [Example 72, (3aSR,10RS)-2-(2-tert-Butylamino-ethyl)-10-(3-hydroxy-phenyl)-6-methoxy-3a-methyl-3a,4,9,10-tetrahydro-2,9,10a-triaza-cyclopenta[b]fluorene-1,3-dione] | ≥ 3160 | ≤ 39.8
COc1ccc2[nH]c3c(c2c1)C[C@@]1(C)C(=O)N(CCCN2CC=CCC2)C(=O)N1[C@@H]3c1cccc(O)c1 (racemic) [Example 106, (3aSR,10RS)-2-[3-(3,6-Dihydro-2H-pyridin-1-yl)-propyl]-10-(3-hydroxy-phenyl)-6-methoxy-3a-methyl-3a,4,9,10-tetrahydro-2,9,10a-triaza-cyclopenta[b]fluorene-1,3-dione] | ≥ 316 | ≤ 39.8
CCN(C)CCCN1C(=O)N2[C@H](c3cccc(O)c3)c3[nH]c4ccc(Cl)cc4c3C[C@@]2(C)C1=O (racemic) [Example 140, (3aSR,10RS)-6-Chloro-2-[3-(ethyl-methyl-amino)-propyl]-10-(3-hydroxy-phenyl)-3a-methyl-3a,4,9,10-tetrahydro-2,9,10a-triaza-cyclopenta[b]fluorene-1,3-dione] | ≥ 3160 | ≤ 39.8
C#CCNCCN1C(=O)N2[C@H](c3cccc(O)c3)c3[nH]c4ccc(Cl)cc4c3C[C@@]2(C)C1=O (racemic) [Example 127, (3aSR,10RS)-6-Chloro-10-(3-hydroxy-phenyl)-3a-methyl-2-(2-prop-2-ynylamino-ethyl)-3a,4,9,10-tetrahydro-2,9,10a-triaza-cyclopenta[b]fluorene-1,3-dione] | ≥ 316 | ≤ 39.8
COc1ccc2[nH]c3c(c2c1)C[C@@]1(C)C(=O)N(CCNCC(F)F)C(=O)N1[C@@H]3c1cccc(O)c1 (racemic) [Example 73, (3aSR,10RS)-2-[2-(2,2-Difluoro-ethylamino)-ethyl]-10-(3-hydroxy-phenyl)-6-methoxy-3a-methyl-3a,4,9,10-tetrahydro-2,9,10a-triaza-cyclopenta[b]fluorene-1,3-dione] | ≥ 3160 | 39.8 to 251
CN(CCO)CCN1C(=O)N2[C@H](c3cccc(O)c3)c3[nH]c4ccc(Cl)cc4c3C[C@@]2(C)C1=O (racemic) [Example 126, (3aSR,10RS)-6-Chloro-2-{2-[(2-hydroxy-ethyl)-methyl-amino]-ethyl}-10-(3-hydroxy-phenyl)-3a-methyl-3a,4,9,10-tetrahydro-2,9,10a-triaza-cyclopenta[b]fluorene-1,3-dione] | ≥ 316 | ≤ 39.8
COc1ccc2[nH]c3c(c2c1)C[C@@]1(C)C(=O)N(CCN2CC=CCC2)C(=O)N1[C@@H]3c1cccc(O)c1 (racemic) [Example 68, (3aSR,10RS)-2-[2-(3,6-Dihydro-2H-pyridin-1-yl)-ethyl]-10-(3-hydroxy-phenyl)-6-methoxy-3a-methyl-3a,4,9,10-tetrahydro-2,9,10a-triaza-cyclopenta[b]fluorene-1,3-dione] | ≥ 3160 | ≤ 39.8
COc1ccc2[nH]c3c(c2c1)C[C@@]1(C)C(=O)N(CCCNCCO)C(=O)N1[C@@H]3c1cccc(O)c1 (racemic) [Example 145, (3aSR,10RS)-2-[3-(2-Hydroxy-ethylamino)-propyl]-10-(3-hydroxy-phenyl)-6-methoxy-3a-methyl-3a,4,9,10-tetrahydro-2,9,10a-triaza-cyclopenta[b]fluorene-1,3-dione] | ≥ 316 | ≤ 39.8
CN1CCN(CCN2C(=O)N3[C@H](c4cccc(O)c4)c4[nH]c5ccc(Cl)cc5c4C[C@@]3(C)C2=O)CC1 (racemic) [Example 111, (3aSR,10RS)-6-Chloro-10-(3-hydroxy-phenyl)-3a-methyl-2-[2-(4-methyl-piperazin-1-yl)-ethyl]-3a,4,9,10-tetrahydro-2,9,10a-triaza-cyclopenta[b]fluorene-1,3-dione] | ≥ 316 | ≤ 39.8
CNCCCN1C(=O)N2[C@H](c3cccc(O)c3)c3[nH]c4ccc(OC)cc4c3C[C@@]2(C)C1=O (racemic) [Example 76, (3aSR,10RS)-10-(3-Hydroxy-phenyl)-6-methoxy-3a-methyl-2-(3-methylamino-propyl)-3a,4,9,10-tetrahydro-2,9,10a-triaza-cyclopenta[b]fluorene-1,3-dione] | ≥ 3160 | ≤ 39.8
